According to ChEMBL document CHEMBL3351493, “Beta-aminoketones as prodrugs for selective irreversible inhibitors of type-1 methionine aminopeptidases” (Bioorg Med Chem Lett, 2014):
Calls of active or inactive are those of the source. The calls are words filed in the database; no cut-off is given here.

Key:
Escherichia coli = assay: Antimicrobial activity against Escherichia coli BL21(DE3) assessed as inhibition of bacterial growth at 200 uM incubated at 37 degC for 7 hrs; format: functional; settings: BL21-DE3, 7 h
[1] = Half life assessed as decomposition into amines and unsaturated ketones at 250 uM in 50 mM Tris/maleate pH 7.5 buffer by HPLC method; format: physicochemical; settings: Tris/maleate buffer, pH 7.5
BT-474 = assay: Cytotoxicity against human BT474 cells at 1.6 to 100 ug/ml after 72 hrs by crystal violet assay; format: functional, cell-based
[2] = biological target: Methionine aminopeptidase (Staphylococcus aureus (strain COL), UniProt Q5HEN6); assay: Inhibition of N-terminal poly-His-tagged Staphylococcus aureus COL MetAP expressed in Escherichia coli BL21(DE3) incubated for 30 mins before MGMM substrate addition by fluorescence assay; design: species or system Staphylococcus aureus subsp. aureus COL; settings: read-out: IC50
Sequence of Methionine aminopeptidase (Staphylococcus aureus (strain COL), UniProt Q5HEN6) (Q5HEN6 whole entry): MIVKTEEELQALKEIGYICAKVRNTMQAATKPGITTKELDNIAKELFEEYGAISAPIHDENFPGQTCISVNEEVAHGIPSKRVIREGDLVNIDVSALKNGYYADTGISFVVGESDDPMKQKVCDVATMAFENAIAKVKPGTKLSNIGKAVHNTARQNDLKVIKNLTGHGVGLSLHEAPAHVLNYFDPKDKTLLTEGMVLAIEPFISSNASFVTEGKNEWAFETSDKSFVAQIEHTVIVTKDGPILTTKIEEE

[3] = biological target: Methionine aminopeptidase 2 (Homo sapiens, UniProt P50579); settings: sf9
Sequence of Methionine aminopeptidase 2 (P50579 whole entry): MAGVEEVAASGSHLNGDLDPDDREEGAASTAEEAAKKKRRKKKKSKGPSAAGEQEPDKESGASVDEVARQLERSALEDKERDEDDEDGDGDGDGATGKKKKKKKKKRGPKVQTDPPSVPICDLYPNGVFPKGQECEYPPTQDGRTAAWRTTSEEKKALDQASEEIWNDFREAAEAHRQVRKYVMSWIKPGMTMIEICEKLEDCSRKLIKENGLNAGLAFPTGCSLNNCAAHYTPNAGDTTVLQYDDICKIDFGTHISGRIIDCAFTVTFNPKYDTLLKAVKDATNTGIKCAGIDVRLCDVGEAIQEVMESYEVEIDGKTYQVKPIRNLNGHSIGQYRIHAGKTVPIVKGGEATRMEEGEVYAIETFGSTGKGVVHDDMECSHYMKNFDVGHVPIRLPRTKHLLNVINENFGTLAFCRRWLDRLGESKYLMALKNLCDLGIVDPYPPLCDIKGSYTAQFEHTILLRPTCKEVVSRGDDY
Description: Inhibition of human MetAP-2 expressed in Sf9 cells incubated for 60 mins before MGMM substrate addition by fluorescence assay

Ca-Ski = assay: Cytotoxicity against human CaSki cells at 1.6 to 100 ug/ml after 72 hrs by crystal violet assay; format: functional, cell-based
Calu-6 = assay: Cytotoxicity against human Calu6 cells at 1.6 to 100 ug/ml after 72 hrs by crystal violet assay; format: functional, cell-based
[4] = Cytotoxicity against human Flow 2002 cells at 1.6 to 100 ug/ml after 72 hrs by crystal violet assay; format: cell-based; settings: flow 2002, 72 h
[5] = biological target: T1, Methionine aminopeptidase (Escherichia coli K-12, UniProt P0AE18); assay: Inhibition of C-terminal poly-His-tagged Escherichia coli MetAP expressed in Escherichia coli BL21(DE3) incubated for 30 mins before MGMM substrate addition by fluorescence assay; settings: read-out: IC50
T1 sequence (P0AE18 whole entry): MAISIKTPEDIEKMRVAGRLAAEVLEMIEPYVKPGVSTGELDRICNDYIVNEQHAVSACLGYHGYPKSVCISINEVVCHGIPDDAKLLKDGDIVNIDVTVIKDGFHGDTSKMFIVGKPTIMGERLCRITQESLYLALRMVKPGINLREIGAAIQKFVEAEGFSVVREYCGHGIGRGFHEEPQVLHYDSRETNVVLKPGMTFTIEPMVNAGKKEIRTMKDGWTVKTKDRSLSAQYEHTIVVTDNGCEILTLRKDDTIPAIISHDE

A 172 = assay: Cytotoxicity against human A172 cells at 1.6 to 100 ug/ml after 72 hrs by crystal violet assay; format: functional, cell-based
A-431 = assay: Cytotoxicity against human A431 cells at 1.6 to 100 ug/ml after 72 hrs by crystal violet assay; format: functional, cell-based
MeWo = assay: Cytotoxicity against human MeWo cells at 1.6 to 100 ug/ml after 72 hrs by crystal violet assay; format: functional, cell-based
SW707 = assay: Cytotoxicity against human SW707 cells at 1.6 to 100 ug/ml after 72 hrs by crystal violet assay; format: functional, cell-based
HaCaT = assay: Cytotoxicity against human HaCaT cells at 1.6 to 100 ug/ml after 72 hrs by crystal violet assay; format: cell-based
CAPAN-1 = assay: Cytotoxicity against human Capan1 cells at 1.6 to 100 ug/ml after 72 hrs by crystal violet assay; format: functional, cell-based

Row | Structure (SMILES) | inhibition at 200 µM (Escherichia coli) [%] | half-life at 250 µM [1] [min] | Activity (BT-474) | IC50 [2] [µM] | IC50 [3] | Activity (Ca-Ski) | Activity (Calu-6) | Activity [4] | IC50 [5] [nM] | Activity (A 172) | Activity (A-431) | Activity (MeWo) | Activity (SW707) | Activity (HaCaT) | Activity (CAPAN-1)
1 | CN(C)CC1Cc2c(cccc2C(F)(F)F)C1=O.Cl (stereo unspecified) | 22 | 1730 | Active | 46 | Not Active | Active | Active | Toxic | 7000 | Active | Active | Active | Active | Toxic | Active
2 | Cc1ccc2c(c1)C(=O)C(CN(C)C)C2.Cl (stereo unspecified) | 45 | 14 | Active | 15 | Not Active | Active | Active | Toxic | 700 | Active | Active | Active | Active | Toxic | Active
3 | Cl.O=C1c2ccccc2CC1CN1CCCCC1 (stereo unspecified) | 50 | 16 | Active | 25 | Not Active | Active | Active | Toxic | 3100 | Active | Active | Active | Active | Toxic | Active
4 | C=C1Cc2cc(Br)ccc2C1=O | 21 |  | Active |  | Not Active | Active | Active | Toxic | 190 | Active | Active | Active | Active | Toxic | Active
5 | C=C1Cc2cc(C)ccc2C1=O | 100 |  | Active | 13.3 | Not Active | Active | Active | Toxic | 400 | Active | Active | Active | Active | Toxic | Active
6 | COc1ccc2c(c1)CC(CN(C)C)C2=O.Cl (stereo unspecified) | 35 | 45 | Active | 42.1 | Not Active | Active | Active | Toxic | 2000 | Active | Active | Active | Active | Toxic | Active
7 | C=C1Cc2ccc(C)cc2C1=O |  |  | Active |  | Not Active | Active | Active | Toxic | 800 | Active | Active | Active | Active | Toxic | Active
8 | C=C1Cc2cc(OC)ccc2C1=O |  |  | Active |  | Not Active | Active | Active | Toxic | 980 | Active | Active | Active | Active | Toxic | Active
9 | CN(C)CC1Cc2ccccc2C1=O.Cl (stereo unspecified) | 90 | 10 | Active | 26 | Not Active | Active | Active | Toxic | 2800 | Active | Active | Active | Active | Toxic | Active
10 | C=C1Cc2ccc(OC)cc2C1=O |  |  | Active |  | Not Active | Active | Active | Toxic | 670 | Active | Active | Active | Active | Toxic | Active
11 | COc1ccc2c(c1)C(=O)C(CN(C)C)C2.Cl (stereo unspecified) | 19 | 12 | Active | 17 | Not Active | Active | Active | Toxic | 830 | Active | Active | Active | Active | Toxic | Active
12 | CN(C)CC1Cc2cc(Cl)ccc2C1=O.Cl (stereo unspecified) | 71 | 7 | Active | 7 | Not Active | Active | Active | Toxic | 840 | Active | Active | Active | Active | Toxic | Active
13 | C=C1Cc2cc(Cl)ccc2C1=O | 27 |  | Active |  | Not Active | Active | Active | Toxic | 230 | Active | Active | Active | Active | Toxic | Active
14 | Cc1ccc2c(c1)CC(CN(C)C)C2=O.Cl (stereo unspecified) | 100 | 24 | Active | 32 | Not Active | Active | Active | Toxic | 1100 | Active | Active | Active | Active | Toxic | Active
15 | CN(C)CC1Cc2cc(Br)ccc2C1=O.Cl (stereo unspecified) | 57 | 6 | Active | 7.8 | Not Active | Active | Active | Toxic | 720 | Active | Active | Active | Active | Toxic | Active
